Measured values: ChEMBL document CHEMBL5727906, “Adenosine A3 receptor modulators” (2020)

What was measured:
Adenosine receptor A1 = molecular target: T1, Adenosine receptor A1 (Homo sapiens, UniProt P30542); assay: Competition Radioligand Binding Assay: Adenosine A1 Receptor: Competition assays were carried out by incubation of human recombinant membranes of adenosine receptors from hA1 receptors transfected to CHO cells, [3H] DPCPX as radioligand, buffer (HEPES 20 mM (pH=7.4), 10 mM MgCl2, 100 mM NaCl, 2 U/mL of deaminase adenosine and non-labelled ligand in a total volume of 0.2 mL for 90 min at 25° C. R-PIA was used to determinate non-specific binding. Filter over Schleicher & Schuell GF/52 (pre-soaked 0.5% polyethylenimine) in a Brandel cell harvester. Unbound radioligand was removed with HEPES 30 mM (3×250 μl), NaCl (100 mM) and MgCl2 (10 mM).
T1 sequence (P30542 whole entry): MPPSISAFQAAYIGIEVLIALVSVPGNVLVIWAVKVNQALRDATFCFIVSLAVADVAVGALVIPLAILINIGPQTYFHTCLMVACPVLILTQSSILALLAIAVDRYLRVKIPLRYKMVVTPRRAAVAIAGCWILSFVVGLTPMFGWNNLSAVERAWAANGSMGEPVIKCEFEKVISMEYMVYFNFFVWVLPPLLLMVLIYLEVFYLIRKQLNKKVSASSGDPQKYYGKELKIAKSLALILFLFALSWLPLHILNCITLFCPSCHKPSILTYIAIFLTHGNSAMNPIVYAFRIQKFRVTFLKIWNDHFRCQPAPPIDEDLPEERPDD

Adenosine receptor A3 = molecular target: T2, Adenosine receptor A3 (Homo sapiens, UniProt P0DMS8); assay: Competition Radioligand Binding Assay: A3 Adenosine Receptor:Competitive assays were carried out by incubation of membranes from human A3 receptors transfected to CHO cells, [3H]-NECA, buffer (20 mM HEPES (pH 7.4), 100 mM NaCl, 10 mM MgCl2, 2 units/ml adenosine deaminase), and unlabelled ligand in a total volume of 0.2 ml for 60 min at 25° C. R-PIA was used to determine nonspecific binding. It was filtered over Schleicher & Schuell GF/52 (presoaked with 0.5% polyethyleneimine) in a Brandel cell harvester. The unbound radioligand was removed with 3×250 μl of 20 mM HEPES (pH 7.4), 100 mM NaCl, 10 mM MgCl2.
T2 sequence (P0DMS8 whole entry): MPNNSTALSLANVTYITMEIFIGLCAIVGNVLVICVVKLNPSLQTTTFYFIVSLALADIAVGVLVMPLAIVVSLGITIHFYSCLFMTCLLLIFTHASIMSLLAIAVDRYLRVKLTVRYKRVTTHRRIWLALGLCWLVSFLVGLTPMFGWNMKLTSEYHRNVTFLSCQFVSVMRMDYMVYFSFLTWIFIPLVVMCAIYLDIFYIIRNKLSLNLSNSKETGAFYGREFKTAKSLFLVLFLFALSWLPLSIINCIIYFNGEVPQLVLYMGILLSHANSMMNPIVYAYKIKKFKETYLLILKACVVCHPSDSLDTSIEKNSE

Adenosine receptor A2a = Adenosine receptor A2a (Homo sapiens, UniProt P29274); assay: Competition Radioligand Binding Assay: A2A Adenosine Receptor: Competitive assays were carried out by incubation of membranes from human A2A receptors transfected to HeLa cells, [3H]-ZM241385, buffer (Tris-HCl 50 mM (pH=7.4), 10 mM MgCl2, EDTA 1 mM and 2 units/ml adenosine deaminase), and unlabelled ligand in a total volume of 0.2 ml for 60 min at 25° C. NECA was used to determine nonspecific binding. It was filtered over Schleicher & Schuell GF/52 (presoaked with 0.5% polyethyleneimine) in a Brandel cell harvester. The unbound radioligand was removed with 3×250 μl of 20 mM Tris-HCl 50 mM (pH=7.4), 10 mM MgCl2, EDTA 1 mM.
Chain of Adenosine receptor A2a (P29274 whole entry): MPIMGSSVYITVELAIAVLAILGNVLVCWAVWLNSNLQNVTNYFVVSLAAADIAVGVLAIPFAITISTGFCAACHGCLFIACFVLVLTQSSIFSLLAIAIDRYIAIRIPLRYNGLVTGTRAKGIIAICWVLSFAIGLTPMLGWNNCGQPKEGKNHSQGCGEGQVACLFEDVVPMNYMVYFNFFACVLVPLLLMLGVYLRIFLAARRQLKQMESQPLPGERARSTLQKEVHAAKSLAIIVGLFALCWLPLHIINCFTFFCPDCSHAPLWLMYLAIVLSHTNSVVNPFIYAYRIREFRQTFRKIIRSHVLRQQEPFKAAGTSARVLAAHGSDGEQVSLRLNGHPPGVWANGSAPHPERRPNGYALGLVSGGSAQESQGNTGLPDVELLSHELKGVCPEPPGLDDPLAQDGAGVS

Adenosine receptor A2b = molecular target: T3, Adenosine receptor A2b (Homo sapiens, UniProt P29275); assay: Competition Radioligand Binding Assay: A2B Adenosine Receptor: The binding assay for adenosine A2B receptor subtype was carried out on human recombinant source (HEK-293 cells) and [3H]DPCPX as radioligand.
T3 sequence (P29275 whole entry): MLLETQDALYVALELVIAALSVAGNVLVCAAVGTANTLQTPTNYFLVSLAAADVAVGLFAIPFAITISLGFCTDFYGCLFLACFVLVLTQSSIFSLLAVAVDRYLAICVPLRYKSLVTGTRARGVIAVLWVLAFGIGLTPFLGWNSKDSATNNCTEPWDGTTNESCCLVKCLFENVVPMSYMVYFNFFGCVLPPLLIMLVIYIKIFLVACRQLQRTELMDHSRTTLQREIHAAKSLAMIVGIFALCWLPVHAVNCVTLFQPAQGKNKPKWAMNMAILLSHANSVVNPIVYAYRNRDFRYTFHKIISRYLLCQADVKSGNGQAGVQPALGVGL

SMILES: COc1ccc(-c2nc(NC(=O)c3ccc(N4CCC(C(=O)O)CC4)nc3)sc2C#N)cc1
- Ki (Adenosine receptor A1): > 1000 nM
- Ki (Adenosine receptor A3): 47.6 nM
- Ki (Adenosine receptor A2a): > 1000 nM
- Ki (Adenosine receptor A2b): > 1000 nM
